Patent US20110130355A1, “USE OF SOPHORICOSIDE IN THE MANUFACTURE OF MEDICAMENTS” (priority 2008, published 2011)
Marks after values point to notes of the source that are not given here.

Experiments:
[1] = Body weights of rats before and after the treatments; assay type: in vivo, SD rats; details: OVX rats, after treatment (11 weeks)
Protocol: OVX group and the intervention groups: The rats were anesthetized by intraperitoneal injection of 1% pentobarbital sodium at 5 ml/kg. After the onset of anesthesia, the rats were positioned face-down and dehaired at the third lumbar vertebra below the costal arch. The skin was sanitized by benzalkonium bromide and incised by about 1 cm. The subcutaneous tissue and the fascia were incised, and the muscle was bluntly separated. The peritoneum was carefully cut open. White fat was lifted carefully by using tissue forceps inserted to the abdominal cavity through the incision. The fat was gently turned over to expose the quincuncial ovary, which was then ligated by sterile 1 silk thread. The ovary was separated by cutting the oviduct by ophthalmic scissors. After hemostasis by compression, the fat was returned into the abdominal cavity. Subsequently, an incision was made on the opposite side and the same procedures were carried out to excise the ovary on the opposite side. The peritoneum, the fascia, the subcutaneous tissue, and the skin were sutured one by one. The incisions were sanitized. The rats were raised in the clean SPF animal chamber in the Animal Experimental Center of the Shanghai Institutes for Biological Sciences, CAS, with temperature maintained at 24° C., humidity maintained at 40˜60%, and a diurnal rhythm of 12 h/12 h. The rats were supplied with normal food and purified water ad libitum. The vehicle was 1% sodium carboxymethylcellulose (CMC-Na). The sham group and OVX group were administered the vehicle by gavage. Intervention groups were administered the following formulations of active agents dissolved in the vehicle: The rats were sacrificed by cervical dislocation after 11 weeks. Uteri were removed, weighted, and fixed in 4% paraformaldehyde (PFA). The whole right knee joints were removed and fixed in 4% PFA. The rats were weighted, and then sacrificed. The uteri were removed from the rats and determined for wet weights.

CTX-II = assay: Determination of the urinary CTX-II content (competitive ELISA, creatinine corrected); assay type: in vivo, SD rats; details: OVX rats, urine at 3, 5, 7 weeks, FIG. 2, vs. model group
Protocol: Urine samples (1˜1.5 ml) were collected in eppendorf tubes from the rats before modeling and at 3 weeks, 5 weeks and 7 weeks by using metabolic cages, and stored at −20° C.
1. The concentrations of CTX-II in the urine samples obtained in accordance with example 1 were determined by the Urine Pre-clinical (PC) Cartilaps ELISA kit and the competitive enzyme linked immunosorbent assay (ELISA). The concentration of creatinine (referred to as “Crea” hereinafter) in the urine samples were determined by the multifunctional biochemistry analyzer (Beckman coulter, DXC800). The CTX-II contents were corrected by the following formula:
Corrected CTX-II ([…])=CTX-II (μg/L)/Crea (mmol/L) […]
12) The optical densities (ODs) were determined by a microplate reader (Molecular Devices Corporation, BD03315) at 450 nm and 650 nm, and a 4-parameter logistic regression curve was thereby obtained, so as to read the concentration of each sample.
4. Determination of Crea in the urine samples (mmol/L): The Crea concentration is determined by using a multiple biochemistry analyzer (Beckman coulter, DXC800) by the Lab Department of Shanghai Ruij in Hospital.
The CTX-II baseline ratios were calculated as the above formula, and the results were shown in FIG. 2, wherein ** indicates p<0.01 vs. the model group at the same time point, and * indicates p<0.05 vs. the model group at the same time point.

[2] = tested on: articular cartilage of the knee joint; assay: Articular surface lesions of the knee joint (toluidine blue staining, image analysis); assay type: in vivo, SD rats; details: OVX rats, 11 weeks; for lesion percentage for the articular surface, total: whole knee joint
Protocol: 1. The Pathological Sections of the Knee Joints of Rats
1) The knee joints of rats were fixed in 4% PFA for 48 hours;
2) The samples were decalcified in 15% ethylenediamine tetraacetic acid (EDTA) for 15 days;
The coronal sections were sectioned by a paraffin microtome (Leica, Model: RM2235) at thickness of 5 μm with the medial collateral ligament being used as a marker. The sections were transferred into warm water at 30° C., and plated on slides pre-treated with polylysine. The slides were transferred to an incubator at 65° C. for 3 hours and stored at ambient condition until use.
2) Staining: The sections were stained in 1% Ammonia Toluene blue for 5 minutes and rinsed with water for 10 minutes;
The lesion lengths in the four weight-bearing articular cartilage surface lesion regions of medial and lateral femoral condyles and medial and lateral tibial plateaus were measured with Axioplan 2 microscopy imaging analysis system (Axioplan 2 multifunctional automatic fluorescent microscope, KS400 imaging analysis system Ver. 3.0, AxioCam digital camera at a resolution of 3900×3090) by two independent persons skilled in the imaging art (FIGS. 3A and 3B). The results were averaged. The lesion percentage for each of the four articular surfaces was calculated. Finally the total lesion percentage for the knee joint was calculated as:
The lesion percentage for each part of the articular surface=lesion length/total length of the weight-bearing articular surface×100%.
The lesion percentage for articular surface of the knee joint=total lesion length/total length of the articular surface×100%.

[3] = tested on: carrageenan-induced edema; details: in vivo; cited from earlier work
[4] = tested on: croton oil-induced ear edema; details: in vivo; cited from earlier work
interleukin-5 = details: cited from earlier work

O=c1c(-c2ccc(O[C@@H]3O[C@H](CO)[C@@H](O)[C@H](O)[C@H]3O)cc2)coc2cc(O)cc(O)c12 [HDA, 3-[4-(β-D-glucopyranosyl)-benzyl]5,7-dihydro-4H-1-benzopyran-4-one (4′,5,7-trihydroxylisoflavone-4′-D-glucoside)]
Final body weight ([1]; sophoricoside 10 mg/kg/day): 370.9 ± 5.7 g
Final body weight ([1]; sophoricoside 20 mg/kg/day): 376.2 ± 6.5 g
Final body weight ([1]; sophoricoside 40 mg/kg/day): 372.5 ± 6.8 g
Final body weight ([1]; sophoricoside 80 mg/kg/day): 362.8 ± 3.4 g
metabolic peak of urinary CTX-II (ratio to baseline) shortly after ovariectomy (CTX-II; sophoricoside 40 mg/kg/day): also have this effect, but in a weaker manner
metabolic peak of urinary CTX-II (ratio to baseline) shortly after ovariectomy (CTX-II; sophoricoside 80 mg/kg/day): significantly suppress the metabolic peak of CTX-II shortly after ovariectomy
articular cartilage degeneration resulted from ovariectomy, in words ([2]; sophoricoside 10 mg/kg/day): ameliorated by the interventions other than HDA10 and HDA20
articular cartilage degeneration resulted from ovariectomy, in words ([2]; sophoricoside 20 mg/kg/day): ameliorated by the interventions other than HDA10 and HDA20
articular cartilage degeneration resulted from ovariectomy, in words ([2]; sophoricoside 40 mg/kg/day): effective but not able to completely reverse the degeneration
articular cartilage degeneration resulted from ovariectomy, in words ([2]; sophoricoside 80 mg/kg/day): significantly more effective than OVX
lesion percentage for the articular surface, total ([2]; sophoricoside 10 mg/kg/day): 7.785 ± 0.547^□□ %
lesion percentage for the articular surface, total ([2]; sophoricoside 20 mg/kg/day): 6.622 ± 0.366^□□ %
lesion percentage for the articular surface, total ([2]; sophoricoside 40 mg/kg/day): 5.617 ± 0.264*^□□ %
lesion percentage for the articular surface, total ([2]; sophoricoside 80 mg/kg/day): 4.808 ± 0.603 %
carrageenan-induced edema [3]: inhibit
croton oil-induced ear edema [4]: inhibit
inhibition of interleukin-5 (interleukin-5): inhibitor of interleukin-5
